Source: the supplement of paper PMC10949913

What was measured:
Details in all cases: 48 h
NCI-H295R [1] = assay: area under concentration-response curve (viability) (AUC (a.u.)); higher = less active
In short: (§1)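 After 48 h of treatment with 23 nL of each library compound at 11 concentrations, three adrenocortical carcinoma cell lines in 1,536-well plates (500–1,000 cells/well, 5 µL medium) were given CellTiter-Glo for 15 minutes at room temperature. Luminescence was then read and normalised per plate to vehicle and empty-well controls. AC50 and area under the curve were drawn from fitted concentration-response curves of inhibitory or non-responding classes only.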

CU-ACC1 [2] = assay: as above
In short: as §1

CU-ACC2 [3] = assay: as above
In short: as §1

NCI-H295R [4] = assay: AC50 viability; higher = less potent
In short: as §1

CU-ACC1 [5] = assay: AC50 viability; higher = less potent
In short: as §1

CU-ACC2 [6] = assay: AC50 viability; higher = less potent
In short: as §1

SMILES	area under concentration-response curve (NCI-H295R [1])	area under concentration-response curve (CU-ACC1 [2])	area under concentration-response curve (CU-ACC2 [3])	AC50 viability (NCI-H295R [4])	AC50 viability (CU-ACC1 [5])	AC50 viability (CU-ACC2 [6])
Cn1cc(CNCC2CCN(c3ncc(C(=O)NO)cn3)CC2)c2ccccc21	443	325	347	0.661 µM	0.661 µM	0.417 µM
CC[C@@]1(O)C(=O)OC\C2=C1\C=C\3N(CC4=C3N=C5C=CC=CC5=C4)C2=O	443	363	424	1.48 µM	1.66 µM	0.742 µM
COC(C)(C)CCn1nc(Nc2c(C)cccc2C)c2cnc(Nc3ccc(OCCN4CCCC4)c(F)c3)nc21	513	506	467	11.8 µM	14.8 µM	14.8 µM
Cc1cnc(Nc2ccc(CN3CCOCC3)cc2)nc1Nc1cccc([S+](=O)([O-])NC(C)(C)C)c1	492	445	509	9.34 µM	20.9 µM	11.8 µM
CCc1cnn2c(NCc3ccc[n+]([O-])c3)cc(N3CCCC[C@H]3CCO)nc12	158	177	167	0.00417 µM	0.00263 µM	0.0059 µM
CNC(=O)c1cc(COc2nnc(Nc3ccc(Cl)cc3)c3ccoc23)ccn1	423	419	462	5.25 µM	1.86 µM	8.33 µM
COc1cc(F)ccc1-c1ncnc(Nc2cccc(C[S+](C)(=N)[O-])c2)n1 (stereo not drawn)	428	388	380	4.17 µM	1.86 µM	0.934 µM
CO[C@@H]1[C@@H](O)[C@H](O)[C@@H](n2c3c(Cl)cccc3c3c4c(c5c6cccc(Cl)c6[nH]c5c32)C(=O)NC4=O)O[C@H]1CO	494	461	438	2.63 µM	3.32 µM	8.33 µM
COCCOC(=O)N1CCN([S+](=O)([O-])c2cc(F)c(Oc3ccc(Cl)cc3)c(F)c2)C(C(=O)NO)C1 (stereo not drawn)	507	471	428	20.9 µM	13.2 µM	10.5 µM
COc1cc(Nc2c(C#N)cnc3cc(OCCCN4CCN(C)CC4)c(OC)cc23)c(Cl)cc1Cl	430	412	451	7.42 µM	5.9 µM	8.33 µM
CC(C)[C@]12O[C@H]1[C@@H]3O[C@@]34[C@@]5(C)CC\C6=C(COC6=O)/[C@@H]5C[C@@H]7O[C@]47C2=O	329	245	270	0.833 µM	0.0417 µM	0.0525 µM
O=C(/C=C\n1cnc(-c2cc(C(F)(F)F)cc(C(F)(F)F)c2)n1)NNc1cnccn1	469	319	489	13.2 µM	20.9 µM	11.8 µM
c1cncc(CN2CCC(n3ncc4c(N5CCOCC5)nc(-c5ccc6[nH]ccc6c5)nc43)CC2)c1	446	442	472	16.6 µM	20.9 µM	14.8 µM
COc1ccc(F)c(F)c1C(=O)c1cnc(NC2CCN([S+](C)(=O)[O-])CC2)nc1N	435	409	364	4.68 µM	2.35 µM	1.48 µM
CNCCn1c(=O)c2cc(OC)c(OC)cc2c2cnc3cc4c(cc3c21)OCO4	553	422	537	0.152 µM	0.0959 µM	0.135 µM
C[C@@H]1O[C@@H](O[C@H]2C[C@@H](O)[C@]3(CO)[C@H]4[C@H](O)C[C@]5(C)[C@H](CC[C@]5(O)[C@@H]4CC[C@]3(O)C2)C/6=C/C(=O)OC6)[C@H](O)[C@H](O)[C@H]1O	264	215	335	0.0934 µM	0.0263 µM	0.0468 µM
CN(C)c1ccc(C(=O)NCCCCCCC(=O)NO)cc1	444	348	450	5.25 µM	4.68 µM	4.17 µM
Cc1c(CN2CCN([S+](C)(=O)[O-])CC2)sc2c(N3CCOCC3)nc(-c3cnc(N)nc3)nc12	333	282	403	1.18 µM	0.525 µM	0.468 µM
Cc1cccc(Nc2nc(-c3ccncc3)cs2)c1	531	497	549	14.8 µM	20.9 µM	16.6 µM
CN1CCN(C(=O)c2ccc3cc(CCNc4ncnc5ccc(C#N)cc45)ccc3c2)CC1	436	397	499	2.95 µM	4.17 µM	16.6 µM
CC1(N2CCC(n3c([C@@H]4CCCNC4)nc4ccccc43)CC2)CCCCCCC1	439	470	562	11.8 µM	10.5 µM	13.2 µM
COc1cc2c(Nc3ccc(Br)cc3F)ncnc2cc1OCC1CCN(C)CC1	403	401	418	16.6 µM	14.8 µM	16.6 µM
CC[C@H](CC#N)OC(=O)N[C@@H](C)c1cccc(NC(=O)Nc2ccc(-c3cnco3)c(OC)c2)c1	489	456	530	2.09 µM	5.9 µM	5.9 µM
c1ccc(Cn2c(-c3ccc(OCC(C4CCNCC4)n4c(-c5ccccc5)nc5ccccc54)cc3)nc3ccccc32)cc1 (stereo not drawn)	363	387	391	9.34 µM	11.8 µM	11.8 µM
COc1ccc(CCN(C)CCCOc2ccc([S+](=O)([O-])c3c(C(C)C)c4ccccc4n3C)cc2)cc1OC	427	448	565	13.2 µM	10.5 µM	20.9 µM
CCC(C)SSc1ncc[nH]1 (stereo not drawn)	491	503	507	23.5 µM	33.2 µM	20.9 µM
Cc1c[nH]c2nc(Nc3ccc(N4CCN(C)CC4)c(F)c3)nc(-c3cccc(CC#N)c3)c12	472	457	422	5.25 µM	6.61 µM	4.17 µM

SMILES	area under concentration-response curve (NCI-H295R [1])	area under concentration-response curve (CU-ACC1 [2])	area under concentration-response curve (CU-ACC2 [3])	AC50 viability (NCI-H295R [4])	AC50 viability (CU-ACC1 [5])	AC50 viability (CU-ACC2 [6])
Nc1cc(C(F)(F)F)c(-c2cc(N3CCOCC3)nc(N3CCOCC3)n2)cn1	449	400	539	2.63 µM	9.34 µM	4.68 µM
CC(C)[C@]12O[C@H]1[C@@H]3O[C@@]34[C@@]5(C)CC\C6=C(COC6=O)/[C@@H]5C[C@@H]7O[C@]47[C@@H]2O	274	251	242	0.295 µM	0.0525 µM	0.059 µM
Cc1ncc(-c2ccnc(Nc3ccc([S+](C)(=O)[O-])cc3)n2)n1C(C)C	307	286	236	2.95 µM	0.742 µM	0.332 µM
CNCCCOc1cc(F)c(-c2c(Cl)nc3ncnn3c2N[C@@H](C)C(F)(F)F)c(F)c1	397	456	403	0.148 µM	5.25 µM	10.5 µM
CC(C)(O)CC(=O)NCCn1ccc2ncnc(Nc3ccc(Oc4cccc(C(F)(F)F)c4)c(Cl)c3)c21	443	465	472	20.9 µM	20.9 µM	23.5 µM
CN1CCCN(C(=O)c2cccc(-c3ccc(/C=C4/C(=O)Nc5ccc(Cl)cc54)o3)c2)CC1	361	392	379	20.9 µM	29.5 µM	23.5 µM
CCOc1cc(C(=O)N2CCC(N3CCN(C)CC3)CC2)ccc1Nc1ncc2c(n1)N(C1CCCC1)c1ccccc1C(=O)N2C	448	423	494	18.6 µM	18.6 µM	18.6 µM
Cn1cc(-c2ccc([S+](=O)([O-])n3ccc(/C=C/C(=O)Nc4ccccc4N)c3)cc2)cn1	352	377	464	5.25 µM	13.2 µM	9.34 µM
Cc1nn(Cc2ccccc2Cl)c(C)c1CN(C)CC(O)COc1ccc(Cl)cc1 (stereo not drawn)	482	418	507	8.33 µM	8.33 µM	7.42 µM
CN[C@H]1CC[C@@H](c2ccc(Cl)c(Cl)c2)c2ccccc21	394	386	438	11.8 µM	10.5 µM	16.6 µM
C=CCNC1=C2C[C@@H](C)C[C@H](OC)[C@H](O)[C@@H](C)/C=C(\C)[C@H](OC(N)=O)[C@@H](OC)/C=C\C=C(/C)C(=O)NC(=CC1=O)C2=O	515	433	418	37.2 µM	10.5 µM	13.2 µM
C=CCNC1=C2CC(C)CC(OC)C(O)C(C)/C=C(\C)C(OC(N)=O)C(OC)/C=C/C=C(\C)C(=O)NC(=CC1=O)C2=O (stereo not drawn)	491	410	480	10.5 µM	3.32 µM	1.18 µM
CC(C)CNc1ccnc(NCc2csc(-c3ccccc3)n2)n1	531	445	591	16.6 µM	3.72 µM	23.5 µM
C=CC(=O)Nc1ccc2ncnc(Nc3ccc(OCc4cccc(F)c4)c(Cl)c3)c2c1	510	334	534	10.5 µM	20.9 µM	10.5 µM
Cn1cc(-c2cnn3c(N)c(Br)c([C@@H]4CCCNC4)nc23)cn1	471	483	568	18.6 µM	20.9 µM	20.9 µM
CCN1C(=O)\C(=C/C2=C(C)N=C(N)N=C12)C3=CC=N[NH]3	431	397	455	5.25 µM	4.17 µM	3.32 µM
COc1ccc(CNC(=O)Nc2ncc([N+](=O)[O-])s2)cc1	410	394	400	23.5 µM	29.5 µM	18.6 µM
Clc1ccc(C(c2ccc(Cl)cc2)[n+]2ccn(CC(OCc3ccc(Cl)cc3Cl)c3ccc(Cl)cc3Cl)c2)cc1 (stereo not drawn)	445	442	528	8.33 µM	13.2 µM	11.8 µM
CCCCc1nc2cc(/C=C/C(=O)NO)ccc2n1CCN(CC)CC	453	416	405	1.48 µM	1.66 µM	5.9 µM
CCN1CCN(Cc2ccc(Nc3ncc(F)c(-c4cc(F)c5nc(C)n(C(C)C)c5c4)n3)nc2)CC1	480	463	362	18.6 µM	18.6 µM	8.33 µM
CCCCNc1ncc2c(-c3ccc(CN4CCN(C)CC4)cc3)cn([C@H]3CC[C@H](O)CC3)c2n1	481	476	544	10.5 µM	16.6 µM	7.42 µM
NC1=C(Cl)C(=CC=N1)OC2=C(F)C=C(NC(=O)\C3=C\N\C=C(C3=O)\C4=CC=C(F)C=C4)C=C2	490	437	502	13.2 µM	14.8 µM	16.6 µM
CC(C)c1c2cc(-c3ccnc(N[C@H]4CC[C@H](NC5CCOCC5)CC4)n3)ccc2nn1C	380	333	376	0.417 µM	0.372 µM	0.263 µM
Fc1ccc(C(OCCN2CCN(CCCc3ccccc3)CC2)c2ccc(F)cc2)cc1	423	471	490	14.8 µM	16.6 µM	18.6 µM
CC(C)C[C@H](NC(=O)CNC(=O)c1cc(Cl)ccc1Cl)B(O)O	408	329	373	0.105 µM	0.166 µM	0.209 µM
Oc1c(Cl)cc(Cl)c2cccnc12	404	417	426	16.6 µM	20.9 µM	14.8 µM
CN1\C=N/C2=CC=C(NC3=CC(=CC=C3C)NC(=O)C4=CC(=CC=C4)C(C)(C)C#N)C=C2C1=O	518	445	499		0.0934 µM	8.33 µM
